Where a name gives a salt, the structure may show the parent alone.
Test system: IL-4, IL-13, STAT-6, IFNγ, IL-17a, IL-10 mRNA in prostates of CP1 infected mice
Experiment: qPCR for cytokine transcripts in prostates
Type: in vivo, C57BL/6 mice
Conditions: late, day 35 post CP1 infection; single drug or combination; CrS 0.5 mg/kg, CeHCl 2.5 mg/kg i.p. daily 10 days
Procedure: The prostates were harvested from mice after euthanizing as described previously (32). Depending on the experimental design, each prostate sample (separated by lobes) were either fixed in 10% formalin or frozen at −80° C. in TRIzol™ reagent (Life Technologies Corporation, Grand Island, NY, USA), or frozen at −80° C. in 1×RIPA (Santa Cruz Biotechnology, Dallas, TX, USA) containing complete-EDTA protease inhibitor cocktail and phosSTOP phosphatase inhibitor (Millipore-Sigma, Burlington, MA, USA), or processed for tissue digestion for flow cytometry. Formalin samples were further processed and embedded in paraffin. The formalin-fixed paraffin-embedded (FFPE) samples were then sectioned (5 μm sections) and mounted on glass slides for staining. […] Following voiding behavior testing on days 14 or 35 [“early treatment” or “late treatment” groups respectively], mice were euthanized and tissues were prepared as described above. Total RNA was isolated using TRIzol™ reagent (Life Technologies Corporation, Grand Island, NY, USA), and cDNA synthesis, starting with 1 μg of total RNA, was performed with random hexamers using High-Capacity cDNA Reverse Transcription Kit (Life Technologies Corporation, Grand Island, NY, USA) per the manufacturer's instructions. Primers for quantitative PCR (qPCR) were created for the RNA of interest using the NIH online primer blast tool. Reverse Transcription-Quantitative Polymerase Chain Reaction (RT-qPCR) reactions were performed using SsoAdvanced™ universal SYBR® green (Bio-Rad, Hercules, CA, USA) and run on the CFX Connect (Bio-Rad, Hercules, CA, USA) platform. A full table of primer sequences is included in Table 1. The data were analyzed by the 2^−ΔΔCT method (38), and normalized to GAPDH as the housekeeping gene. The data are represented as fold change normalized to the average expression of the gene of interest in their respective control group.

## O=C(O)COCCN1CCN(C(c2ccccc2)c2ccc(Cl)cc2)CC1 (stereo not shown) [CeHCl, cetirizine di-hydrochloride]
  IL-4 gene expression in prostates of CP1-infected mice (FIG. 12): reduced the gene expression levels of IL-4 and IL-13 to a modest but non-significant levels
  IL-13 gene expression in prostates of CP1-infected mice (FIG. 12): reduced the gene expression levels of IL-4 and IL-13 to a modest but non-significant levels

## O=C([O-])c1cc(=O)c2c(OCC(O)COc3cccc4oc(C(=O)[O-])cc(=O)c34)cccc2o1.[Na+].[Na+] [CrS, cromolyn sodium]
  IL-4 gene expression in prostates of CP1-infected mice (FIG. 12): reduced the gene expression levels of IL-4 and IL-13 to negligible levels
  IL-13 gene expression in prostates of CP1-infected mice (FIG. 12): reduced the gene expression levels of IL-4 and IL-13 to negligible levels

— patent US11857531B2, “Combination mast cell inhibition for treatment of BPH/LUTS” (Northwestern University, priority 2020, dated 2024)
